From the NIST ThermoML archive (doi:10.1007/s10765-009-0593-3)

Test: xn = mol fraction of the nth substance listed
Settings: 101 kPa, Liquid; for speed of sound: Pulse-echo method

CCCOCC(C)OCC(C)O (stereo not given) [1-(1-methyl-2-propoxyethoxy)-2-propanol] + CCCCNCCCC
Settings | mass density, 288.15 K [kg/m3] | mass density, 293.15 K [kg/m3] | speed of sound, 288.15 K [m/s] | speed of sound, 293.15 K [m/s] | speed of sound, 298.15 K [m/s]
x1 = 0.123 | 792.458 | 788.243 | 1291.2 | 1271.6 | 1252
x1 = 0.1582 | 798.993 | 794.736 | 1293.2 | 1273.2 | 1253.7
x1 = 0.1913 | 804.954 | 800.654 | 1294.9 | 1274.7 | 1255.1
x1 = 0.2541 | 815.956 | 811.61 | 1297.6 | 1277.1 | 1257.5
x1 = 0.3195 | 827.1 | 822.71 | 1299.8 | 1279.3 | 1259.6
x1 = 0.3623 | 834.198 | 829.803 | 1300.9 | 1280.5 | 1260.8
x1 = 0.4155 | 842.79 | 838.381 | 1302 | 1281.8 | 1262
x1 = 0.4543 | 848.877 | 844.447 | 1302.6 | 1282.7 | 1262.9
x1 = 0.4974 | 855.422 | 850.98 | 1303.2 | 1283.5 | 1263.7
x1 = 0.5491 | 863.031 | 858.573 | 1303.6 | 1284.3 | 1264.5
x1 = 0.6027 | 870.648 | 866.201 | 1304 | 1285.1 | 1265.2
x1 = 0.6687 | 879.855 | 875.389 | 1304.3 | 1285.8 | 1266
x1 = 0.6962 | 883.669 | 879.204 | 1304.4 | 1286 | 1266.3
x1 = 0.7504 | 891.256 | 886.786 | 1304.6 | 1286.4 | 1266.8
x1 = 0.7997 | 898.225 | 893.775 | 1304.8 | 1286.7 | 1267.3
x1 = 0.8657 | 907.649 | 903.208 | 1305.3 | 1287 | 1267.9
x1 = 0.8963 | 911.923 | 907.504 | 1305.5 | 1287.2 | 1268.2
x1 = 0.9589 | 920.017 | 915.65 | 1306.3 | 1287.4 | 1268.8
